# Key:
# [1] = tested on: carrageenin induced edema; assay: carrageenin-induced edema test, oral administration; assay type: in vivo, rats; settings: mice
# Description: The compounds of the invention have antiinflammatory activity. […] The compounds are orally administered at dosages varying from 10 to 200 mg/kg. and the observed percent decreases of the induced edema are between about 30 and about 65. The acute toxicity of these compounds is ordinarily very low, almost always being higher than 1000 mg/kg. Moreover the compounds of this invention are much less ulcerogenic than other known and wisely used anti-inflammatories, such as, for example, phenylbutazone.
# [2] = acute toxicity, LD50 p.o. mice; settings: mouse, in vivo, po
Compound,Percent inhibition of carrageenin induced edema ([1]; dose 50 mg/kg p.o.) [%],Percent inhibition of carrageenin induced edema ([1]; dose 100 mg/kg p.o.) [%],Percent inhibition of carrageenin induced edema ([1]; dose 200 mg/kg p.o.) [%],LD50 [2] [mg/kg]
"Cc1oc(-c2ccccc2)nc1C(N)=O [Example 2, 4-Carbamoyl-5-methyl-2-phenyloxazole]",29,42,53,> 1000
"Cc1nc(-c2ccccc2)oc1C(N)=O [Example 1, 5-Carbamoyl-4-methyl-2-phenyloxazole]",30,43,64,> 1000

# — patent US4072689A, “Monoamino 2,4,5-trisubstituted oxazoles” (Gruppo Lepetit S.p.A., priority 1975, dated 1978)
